Like-named read-outs stand apart in the source and are kept apart here.
How the values were obtained:
Test in all cases: TGFα-shedding assay-based GPCR screening with chimeric Gα subunit proteins
Format in all cases: cell-based
348 GPCRs [1] = target: T1, 348 GPCRs (Homo sapiens, UniProt P30542); conditions: 10µM, Favipiravir 100μM
T1 sequence (P30542 1-326): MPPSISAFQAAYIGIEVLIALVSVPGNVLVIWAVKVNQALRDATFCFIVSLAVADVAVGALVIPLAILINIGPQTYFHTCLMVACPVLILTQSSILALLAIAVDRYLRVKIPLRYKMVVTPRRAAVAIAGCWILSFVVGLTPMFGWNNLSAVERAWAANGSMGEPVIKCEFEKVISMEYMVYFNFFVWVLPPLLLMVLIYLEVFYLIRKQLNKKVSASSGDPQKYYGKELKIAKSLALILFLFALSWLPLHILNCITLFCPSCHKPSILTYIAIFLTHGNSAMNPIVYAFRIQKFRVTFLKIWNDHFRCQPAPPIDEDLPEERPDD

348 GPCRs [2] = target: 348 GPCRs (Homo sapiens, UniProt P31391); conditions: 10µM, Favipiravir 100μM
348 GPCRs (Homo sapiens, UniProt P31391), sequence (P31391 whole entry): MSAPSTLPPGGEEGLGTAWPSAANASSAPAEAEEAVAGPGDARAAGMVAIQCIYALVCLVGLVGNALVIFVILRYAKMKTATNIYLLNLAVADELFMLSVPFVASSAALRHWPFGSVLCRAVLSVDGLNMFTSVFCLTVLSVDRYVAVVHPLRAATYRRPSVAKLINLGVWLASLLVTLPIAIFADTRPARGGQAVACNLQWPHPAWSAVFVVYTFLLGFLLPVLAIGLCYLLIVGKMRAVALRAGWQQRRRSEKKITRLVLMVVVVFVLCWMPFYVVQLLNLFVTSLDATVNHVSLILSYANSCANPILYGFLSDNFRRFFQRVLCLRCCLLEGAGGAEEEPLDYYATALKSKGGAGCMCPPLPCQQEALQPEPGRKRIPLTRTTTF

348 GPCRs [3] = target: T2, 348 GPCRs (Homo sapiens, UniProt P41587)
T2 construct: expressed in transfected cells; host or cells: HEK293A
T2 sequence (P41587 24-438): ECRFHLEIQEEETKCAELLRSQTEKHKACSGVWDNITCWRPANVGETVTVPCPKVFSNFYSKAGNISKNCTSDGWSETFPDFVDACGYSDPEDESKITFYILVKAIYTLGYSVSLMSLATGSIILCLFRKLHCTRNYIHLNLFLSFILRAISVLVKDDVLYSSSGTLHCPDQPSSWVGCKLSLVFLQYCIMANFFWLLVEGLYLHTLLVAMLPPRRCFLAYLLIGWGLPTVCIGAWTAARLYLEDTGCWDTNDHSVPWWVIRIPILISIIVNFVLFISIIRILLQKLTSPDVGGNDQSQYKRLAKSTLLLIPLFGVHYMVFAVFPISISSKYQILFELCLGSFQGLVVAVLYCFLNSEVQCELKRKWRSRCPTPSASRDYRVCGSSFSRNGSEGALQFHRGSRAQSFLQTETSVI

348 GPCRs [4] = target: T3, 348 GPCRs (Homo sapiens, UniProt P43119); conditions: 10µM, Favipiravir 100μM
T3 construct: expressed in transfected cells; host or cells: HEK293A
T3 sequence (P43119 whole entry): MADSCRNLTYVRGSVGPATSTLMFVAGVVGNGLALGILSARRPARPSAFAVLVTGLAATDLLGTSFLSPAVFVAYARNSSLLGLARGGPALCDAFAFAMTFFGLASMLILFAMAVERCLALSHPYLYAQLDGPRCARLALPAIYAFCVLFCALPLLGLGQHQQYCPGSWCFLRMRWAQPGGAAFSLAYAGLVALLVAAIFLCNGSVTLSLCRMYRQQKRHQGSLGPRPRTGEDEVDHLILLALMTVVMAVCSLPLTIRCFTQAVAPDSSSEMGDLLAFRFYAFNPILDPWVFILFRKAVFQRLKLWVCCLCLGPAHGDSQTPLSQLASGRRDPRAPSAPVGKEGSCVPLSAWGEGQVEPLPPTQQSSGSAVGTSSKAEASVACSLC

348 GPCRs [5] = target: T4, 348 GPCRs (Homo sapiens, UniProt P46663); conditions: 10µM, Favipiravir 100μM
T4 construct: expressed in transfected cells; host or cells: HEK293A
T4 sequence (P46663 1-353): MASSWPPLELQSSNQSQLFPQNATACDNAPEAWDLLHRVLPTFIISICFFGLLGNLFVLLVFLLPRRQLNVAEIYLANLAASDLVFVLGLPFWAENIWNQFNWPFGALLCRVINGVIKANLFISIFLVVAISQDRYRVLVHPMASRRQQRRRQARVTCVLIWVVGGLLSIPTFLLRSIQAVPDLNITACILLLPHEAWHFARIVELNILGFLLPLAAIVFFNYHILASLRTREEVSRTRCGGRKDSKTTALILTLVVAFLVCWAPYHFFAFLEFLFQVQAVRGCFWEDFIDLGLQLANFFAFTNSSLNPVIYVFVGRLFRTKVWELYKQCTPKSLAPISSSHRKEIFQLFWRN

348 GPCRs [6] = target: T5, 348 GPCRs (Homo sapiens, UniProt P51677); conditions: 10µM, Favipiravir 100μM
T5 construct: expressed in transfected cells; host or cells: HEK293A
T5 sequence (P51677 1-355): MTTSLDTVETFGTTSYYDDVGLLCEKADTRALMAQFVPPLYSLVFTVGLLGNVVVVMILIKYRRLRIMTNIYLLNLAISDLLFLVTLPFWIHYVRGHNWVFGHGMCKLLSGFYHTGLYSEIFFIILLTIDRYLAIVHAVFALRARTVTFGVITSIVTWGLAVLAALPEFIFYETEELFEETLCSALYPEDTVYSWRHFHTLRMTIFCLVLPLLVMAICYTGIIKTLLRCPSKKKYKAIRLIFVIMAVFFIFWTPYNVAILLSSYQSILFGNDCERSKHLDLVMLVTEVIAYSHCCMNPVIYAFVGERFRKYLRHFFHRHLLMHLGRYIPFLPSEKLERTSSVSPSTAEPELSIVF

348 GPCRs [7] = target: T6, 348 GPCRs (Homo sapiens, UniProt P59542); conditions: 10µM, Favipiravir 100μM
T6 construct: expressed in transfected cells; host or cells: HEK293A
T6 sequence (P59542 1-299): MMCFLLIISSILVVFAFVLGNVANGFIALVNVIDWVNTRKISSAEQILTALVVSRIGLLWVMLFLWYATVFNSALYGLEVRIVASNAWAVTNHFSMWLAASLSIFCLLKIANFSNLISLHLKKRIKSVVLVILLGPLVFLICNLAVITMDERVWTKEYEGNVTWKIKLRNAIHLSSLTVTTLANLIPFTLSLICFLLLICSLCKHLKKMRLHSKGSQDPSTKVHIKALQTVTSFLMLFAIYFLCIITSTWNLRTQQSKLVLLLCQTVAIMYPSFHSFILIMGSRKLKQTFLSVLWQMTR

348 GPCRs [8] = target: T7, 348 GPCRs (Homo sapiens, UniProt Q8TDU9); conditions: RXFP4 (relaxin/insulin-like family peptide receptor 4); 10µM, Favipiravir 100μM
T7 construct: expressed in transfected cells; host or cells: HEK293A
T7 sequence (Q8TDU9 whole entry): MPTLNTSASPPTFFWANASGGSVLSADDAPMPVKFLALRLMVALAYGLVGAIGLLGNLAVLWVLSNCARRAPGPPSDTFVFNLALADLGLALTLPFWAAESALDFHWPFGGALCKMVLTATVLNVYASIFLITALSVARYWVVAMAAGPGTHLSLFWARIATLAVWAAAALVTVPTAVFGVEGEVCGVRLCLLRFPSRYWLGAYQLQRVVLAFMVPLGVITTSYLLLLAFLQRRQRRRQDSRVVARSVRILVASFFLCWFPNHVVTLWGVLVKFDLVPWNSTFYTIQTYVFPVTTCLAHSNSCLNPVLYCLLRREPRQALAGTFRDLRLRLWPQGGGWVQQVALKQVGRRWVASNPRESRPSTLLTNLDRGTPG

348 GPCRs [9] = target: T8, 348 GPCRs (Homo sapiens, UniProt Q96AM1); conditions: 10µM, Favipiravir 100μM
T8 construct: expressed in transfected cells; host or cells: HEK293A
T8 sequence (Q96AM1 whole entry): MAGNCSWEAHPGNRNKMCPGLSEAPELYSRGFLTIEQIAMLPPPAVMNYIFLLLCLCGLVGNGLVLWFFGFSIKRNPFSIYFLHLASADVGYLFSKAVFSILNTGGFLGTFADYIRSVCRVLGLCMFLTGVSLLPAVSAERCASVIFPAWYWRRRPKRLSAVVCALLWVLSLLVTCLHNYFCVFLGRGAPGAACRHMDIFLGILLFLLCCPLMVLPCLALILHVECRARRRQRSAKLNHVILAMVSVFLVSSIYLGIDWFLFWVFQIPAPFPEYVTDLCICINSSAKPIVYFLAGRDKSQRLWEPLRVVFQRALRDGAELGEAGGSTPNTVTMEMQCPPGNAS

348 GPCRs [10] = target: T9, 348 GPCRs (Homo sapiens, UniProt Q99677); conditions: LPAR4 (lysophosphatidic acid receptor 4); 10µM, Favipiravir 100μM
T9 construct: expressed in transfected cells; host or cells: HEK293A
T9 sequence (Q99677 whole entry): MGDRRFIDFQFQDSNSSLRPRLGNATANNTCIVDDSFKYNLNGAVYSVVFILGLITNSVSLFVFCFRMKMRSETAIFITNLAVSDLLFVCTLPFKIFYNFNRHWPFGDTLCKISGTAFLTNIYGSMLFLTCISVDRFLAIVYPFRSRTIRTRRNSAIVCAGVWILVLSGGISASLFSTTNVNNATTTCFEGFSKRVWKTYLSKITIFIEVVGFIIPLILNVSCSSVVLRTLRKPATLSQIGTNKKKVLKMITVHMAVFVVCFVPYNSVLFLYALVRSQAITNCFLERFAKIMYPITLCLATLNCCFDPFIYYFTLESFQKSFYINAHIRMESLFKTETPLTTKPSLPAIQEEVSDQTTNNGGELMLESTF

[11] = ADORA1 (adenosine A1 receptor), read-out: % GPCR activation compared to TPA
[12] = SSTR4 (somatostatin receptor 4), read-out: % GPCR activation compared to TPA
[13] = GPCR VIPR2 (vasoactive intestinal peptide receptor 2), read-out: % GPCR activation compared to TPA
[14] = IP (prostaglandin I2 (prostacyclin) receptor), read-out: % GPCR activation compared to TPA
[15] = B1 (bradykinin receptor B1), read-out: % GPCR activation compared to TPA
[16] = CCR3 (C-C motif chemokine receptor 3), read-out: % GPCR activation compared to TPA
[17] = TAS2R19 (taste receptor, type 2, member 19), read-out: % GPCR activation compared to TPA
[18] = MRGF (MAS-related GPR, member F), read-out: % GPCR activation compared to TPA
[19] = MRGPRF (MAS-related GPR, member F), read-out: % GPCR activation compared to TPA
[20] = read-out: % GPCR activation compared to TPA, ADORA1 (adenosine A1 receptor)
[21] = read-out: % GPCR activation compared to TPA, SSTR4 (somatostatin receptor 4)
[22] = read-out: % GPCR activation compared to TPA, GPCR VIPR2 (vasoactive intestinal peptide receptor 2)
[23] = read-out: % GPCR activation compared to TPA, IP (prostaglandin I2 (prostacyclin) receptor)
[24] = read-out: % GPCR activation compared to TPA, B1 (bradykinin receptor B1)
[25] = read-out: % GPCR activation compared to TPA, CCR3 (C-C motif chemokine receptor 3)
[26] = read-out: % GPCR activation compared to TPA, TAS2R19 (taste receptor, type 2, member 19)
[27] = read-out: % GPCR activation compared to TPA, MRGF (MAS-related GPR, member F)
[28] = read-out: % GPCR activation compared to TPA, MRGPRF (MAS-related GPR, member F)

activation at 100 µM (348 GPCRs [1]; [11]) | activation at 10 µM (348 GPCRs [2]; [12]) | activation at 10 µM (348 GPCRs [3]; [13]) | activation at 100 µM (348 GPCRs [4]; [14]) | activation at 10 µM (348 GPCRs [5]; [15]) | activation at 100 µM (348 GPCRs [6]; [16]) | activation at 100 µM (348 GPCRs [7]; [17]) | % GPCR activation compared to TPA (348 GPCRs [8]) | activation at 100 µM (348 GPCRs [9]; [18]) | activation at 100 µM (348 GPCRs [9]; [19]) | % GPCR activation compared to TPA (348 GPCRs [10]) | SMILES | activation at 100 µM (348 GPCRs [1]; [20]) | activation at 10 µM (348 GPCRs [2]; [21]) | activation at 10 µM (348 GPCRs [3]; [22]) | activation at 100 µM (348 GPCRs [4]; [23]) | activation at 10 µM (348 GPCRs [5]; [24]) | activation at 100 µM (348 GPCRs [6]; [25]) | activation at 100 µM (348 GPCRs [7]; [26]) | activation at 100 µM (348 GPCRs [9]; [27]) | activation at 100 µM (348 GPCRs [9]; [28]) | also measured
0.705% | -0.36% | -0.864% | -1.08% | 1.31% | 3.06% | -0.28% | -0.3375% | 4.76% | -0.751% | 1.193% | N#C[C@@]1(c2ccc3c(N)ncnn23)O[C@H](CO)[C@@H](O)[C@H]1O [GS441524] |  |  |  |  |  |  |  |  |  | 
-0.249% | -0.164% |  | -2.05% | 5.17% | 2.7% | -1.32% | 1.69% | 0.745% | -1.13% | -0.5456% | NC(=O)c1nc(F)cnc1O [favipiravir, 6-fluoro-3-hydroxy-2-pyrazinecarboxamide] |  |  |  |  |  |  |  |  |  | activation at 100 µM (348 GPCRs [3]; GPCR VIPR2 (vasoactive intestinal peptide receptor 2), 100μM, read-out: % GPCR activation compared to TPA): -0.699%
-3.9% | -1.09% | -0.156% | -1.76% | -3.36% | -0.741% | -0.811% | -0.4598% | -3.54% | -0.471% | -0.2125% | CC(C)C(=O)OC[C@H]1O[C@@H](n2ccc(NO)nc2=O)[C@H](O)[C@@H]1O [molnupiravir] |  |  |  |  |  |  |  |  |  | 

SMILES | activation at 100 µM (348 GPCRs [1]; [11]) | activation at 10 µM (348 GPCRs [2]; [12]) | activation at 10 µM (348 GPCRs [3]; [13]) | activation at 100 µM (348 GPCRs [4]; [14]) | activation at 10 µM (348 GPCRs [5]; [15]) | activation at 100 µM (348 GPCRs [6]; [16]) | activation at 100 µM (348 GPCRs [7]; [17]) | % GPCR activation compared to TPA (348 GPCRs [8]) | activation at 100 µM (348 GPCRs [9]; [18]) | activation at 100 µM (348 GPCRs [9]; [19]) | % GPCR activation compared to TPA (348 GPCRs [10]) | activation at 100 µM (348 GPCRs [1]; [20]) | activation at 10 µM (348 GPCRs [2]; [21]) | activation at 10 µM (348 GPCRs [3]; [22]) | activation at 100 µM (348 GPCRs [4]; [23]) | activation at 10 µM (348 GPCRs [5]; [24]) | activation at 100 µM (348 GPCRs [6]; [25]) | activation at 100 µM (348 GPCRs [7]; [26]) | activation at 100 µM (348 GPCRs [9]; [27]) | activation at 100 µM (348 GPCRs [9]; [28]) | also measured
CCC(CC)COC(=O)[C@H](C)N[P@](=O)(OC[C@H]1O[C@@](C#N)(c2ccc3c(N)ncnn23)[C@H](O)[C@@H]1O)Oc1ccccc1 [remdesivir] |  |  |  |  |  |  |  | 0.9967% |  |  | -0.0834% | 3.8% | 0.732% | 0.502% | -0.107% | 8.43% | 7.61% | 0.523% | 0.574% | -0.326% | 
CC(C)OC(=O)[C@H](C)N[P@](=O)(OC[C@H]1O[C@@H](n2ccc(=O)[nH]c2=O)[C@](C)(F)[C@@H]1O)Oc1ccccc1 [sofosbuvir] |  |  |  |  |  |  |  | -1.565% |  |  | 3.133% | 1.9% | 0.279% | 1.3% | -1.51% | -5% | -1.65% | -0.561% | -2.71% | -0.0367% | 

— PMC10175918 (Communications Biology, 2023)
